Experimental data from PubChem BioAssay (NCI).
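Following 48 hours of exposure in 96-well plates, responses at five concentrations were used to interpolate endpoints linearly. At the TGI there is no net growth.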

What was measured:
Experiment in all cases: NCI-60 cell line screen, 48 h
[1] = system: OVCAR-4 ovarian
[2] = system: DLD-1 colon
[3] = system: A549 NSCLC
[4] = system: NCI-H226 lung
[5] = system: A498 renal
[6] = system: SN12C renal
[7] = system: KM12 colon
[8] = system: 786-0 renal
[9] = system: NCI-H522 lung
[10] = system: K-562 leukemia
[11] = system: UO-31 renal
[12] = system: SK-OV-3 ovarian
[13] = system: CCRF-CEM leukemia
[14] = system: LOX IMVI melanoma
[15] = system: RXF-631 renal
[16] = system: SF-268 CNS
[17] = system: MALME-3M melanoma
[18] = system: OVCAR-3 ovarian
[19] = system: SR leukemia
[20] = system: U251 CNS
[21] = system: SNB-78 CNS
[22] = system: SF-539 CNS
[23] = system: SK-MEL-5 melanoma
[24] = system: SF-295 CNS
[25] = system: SW-620 colon
[26] = system: UACC-257 melanoma
[27] = system: NCI-H23 lung
[28] = system: HCC-2998 colon
[29] = system: OVCAR-8 ovarian
[30] = system: XF 498 CNS
[31] = system: HCT-116 colon
[32] = system: SNB-19 CNS
[33] = system: CAKI-1 renal
[34] = system: LXFL 529 NSCLC
[35] = system: RXF 393 renal
[36] = system: SK-MEL-28 melanoma
[37] = system: RPMI-8226 leukemia
[38] = system: OVCAR-5 ovarian
[39] = system: M14 melanoma
[40] = system: ACHN renal
[41] = system: DMS 273 small cell lung
[42] = system: HL-60(TB) leukemia
[43] = system: HOP-92 NSCLC
[44] = system: UACC-62 melanoma
[45] = system: IGROV1 ovarian
[46] = system: HOP-62 NSCLC
[47] = system: HT29 colon
[48] = system: NCI-H460 lung
[49] = system: TK-10 renal
[50] = system: MOLT-4 leukemia
[51] = system: SK-MEL-2 melanoma

Measured: TGI

CN(C)/C=C/C(=CC=[N+](C)C)/C=C/N(C)C
> 100 µM: [1] | [2] | [3] | [4] | [5] | [6] | [7] | [8] | [9] | [10] | [11] | [12] | [13] | [14] | [15] | [16] | [17] | [18] | [19] | [20] | [21] | [22] | [23] | [24] | [25] | [26] | [27] | [28] | [29] | [30] | [31] | [32] | [33] | [34] | [35] | [36] | [37] | [38] | [39] | [40] | [41] | [42] | [43] | [44] | [45] | [46] | [47] | [48] | [49] | [50] | [51]
